Measured values taken from US20140322758A1, “ADDITION OF IRON TO IMPROVE CELL CULTURE” (Pfizer Inc., priority 2011, published 2014).

Tests used:
[1] = tested on: CHO cells expressing an nanobody; assay: Fed batch culture of CHO cells expressing a nanobody in shake flasks, FeSO4 addition on day 6; format: cell-based, Chinese hamster; conditions: 1 mM iron added on day 6
Protocol: CHO cells expressing an nanobody were grown by fed batch culture in shake flasks. Cells were initially cultured in 7% CO2 incubator at 37° C. for 0-4 days and shifted to 31° C. after day 4. FeSO4 was added on day 6 to effect a concentration of 1 mM of iron in the cell culture medium. Cells were subjected to cell density, viability, titer, lactate level and Qp analysis at various time points throughout the cell culture process as described in Example 1.

[2] = tested on: cell line producing a monoclonal antibody (clone 2.8); assay: Fed batch culture of clone 2.8 in shake flasks, Fe addition on day 0 or day 9; format: cell-based; conditions: 600 μM added on day 0
Protocol: This experiment is designed to test whether a high concentration of Fe added at day 0 would have an advantageous effect. […] Seed density was 1.5×10^6 cells/mL. The cells were cultured for 14 days. The basal medium was a chemically defined basal medium supplemented with amino acids including 4 mM glutamine. Feed medium is a chemically defined concentrated feed medium. Fe-citrate or FeSO4 was added on day 0 or day 9 to effect a concentration of 600 μM of iron in the cell culture medium. Cells were subjected to cell density, viability, titer and Qp analysis at various time points throughout the cell culture process as described in previous examples.

Compound	Qp ([1]; control 10 μg/e6/day, FIG. 9)	lactate level ([1]; control increased to 2.24 g/L on day 15, FIG. 10)	titer ([1]; read on day 15, control 1.5 g/L, FIG. 8)	viability ([1]; read on day 15, control 70%, FIG. 7)	cell growth ([2]; FIG. 11)	viability on day 14 ([2]; control 74-80%, FIG. 12)	Qp ([2]; throughout the culture, FIG. 13)
O=S(=O)([O-])[O-].[Fe+2] [FeSO4]	20 μg/e6/day	~0 g/L	3.2 g/L	96%			
ferric citrate [Fe-citrate]					increased cell growth at early stage	about 75%	lower than all other conditions
